The values that follow come from patent US6544967B2, “Method for inhibiting bone resorption” (Merck & Co., Inc., priority 1997, dated 2003).

The series relates to canine esophagus tissue. Put plainly: Esophageal irritation potential, dog model (esophageal infusion in simulated gastric juice, histopathology). The series is classed as in vivo. To be noted: for Histopathology of esophagus (photomicrographs): 50 mL; for Esophageal irritation potential: low dosages on consecutive days (Group 7 risedronate, Group 8 tiludronate). The procedure: The esophageal irritation potential of the bisphosphonates is evaluated using a dog model.
The following solutions are prepared:
(1) simulated gastric juice (pH about 2), i.e. the control solution.
(5) simulated gastric juice (pH about 2) containing about 0.20 mg/mL of risedronate sodium on a risedronic acid active basis.
(6) simulated gastric juice (pH about 2) containing about 4.0 mg/mL of tiludronate disodium on a tiludronic acid active basis.
The simulated gastric juice is prepared by dissolving about 960 mg of pepsin (L-585,228000B003, Fisher Chemical) in about 147 mL of 0.90 (wt %) NaCl (aqueous), adding about 3 mL of 1.0 M HCl (aqueous), and adjusting the volume to about 300 mL with deionized water. The pH of the resulting solution is measured and if necessary is adjusted to about 2 using 1.0 M HCl (aqueous) or 1.0 M NaOH (aqueous).
The animals used in the experiments are anesthetized and administered about 50 mL of the appropriate solution over about 30 minutes by infusion into the esophagus using an infusion pump and a rubber catheter. The following treatment experiments are run:
Group 1: This control group contains four animals. Each animal is administered a dosage of about 50 mL of simulated gastric juice [solution (1)] on each of five consecutive days. The animals are sacrificed immediately after the last dose is administered.
Group 2: This group contains four animals. […] The animals are sacrificed immediately after the last dose is administered.
Group 3: This group contains five animals. […] The animals are sacrificed about 24 hours after the dose is administered.
Group 4: This group contains five animals. […] The animals are sacrificed about 7 days after the dose is administered.
Group 5: This group contains six animals. […] The animals are administered a total of four dosages. The animals are sacrificed about 7 days after the last dose is administered.
Group 6: This group contains six animals. […] The animals are administered a total of eight dosages. The animals are sacrificed about four days after the last dose is administered.
Group 7: This group contains eight animals. Each animal is administered a dosage of about 50 mL of simulated gastric juice containing about 0.20 mg/mL of risedronate [solution (5)] on each of five consecutive days. The animals are sacrificed immediately after the last dose is administered.
Group 8: This group contains four animals. Each animal is administered a dosage of about 50 mL of simulated gastric juice containing about 4.0 mg/mL of tiludronate on each of five consecutive days. The animals are sacrificed immediately after the last dose is administered.
The esophagus from each sacrificed animal is removed and prepared for histopathology using standard techniques by embedding the tissue in paraffin, staining with hematoxylin and eosin. The sections are examined microscopically.

Consider `NCCCC(O)(P(=O)(O)O)P(=O)(O)O` [Alendronate, 4-amino-1-hydroxybutylidene-1,1-bisphosphonic acid monosodium trihydrate], for which the Histo-pathology result was “deep ulceration of the epithelial surface and marked submucosal inflammation and vacuolation” (Group 2 (n = 4): 0.20 mg/mL, 50 mL in simulated gastric juice pH about 2, 1X daily for 5 days, sacrifice immediately after last dosing, monosodium trihydrate); “intact epithelial surface with very slight submucosal inflammation and vacuolation” (Group 3 (n = 5): 0.80 mg/mL, 50 mL in simulated gastric juice, 1X, sacrifice 24 hours after dosing, monosodium trihydrate); “intact epithelium with either minimal inflammation (two of the five animals) or no inflammation (three of the five animals) and no vacuolation” (Group 4 (n = 5): 0.80 mg/mL, 50 mL in simulated gastric juice, 1X, sacrifice 7 days after dosing, monosodium trihydrate); “normal with an intact epithelium and absence of inflammatory cells in the submucosa” (Group 5 (n = 6): 0.80 mg/mL, 50 mL in simulated gastric juice, 1X weekly for a total of 4 doses, sacrifice 7 days after last dosing, monosodium trihydrate). Further, for the setting “Group 6: 0.40 mg/mL, twice per week for four weeks (eight dosages), sacrifice about four days after last dose”, the “Histopathology of esophagus (photomicrographs)” value is “deep ulceration of the epithelial surface and marked submucosal inflammation and vacuolation”.

`O=P(O)(O)C(O)(Cc1cccnc1)P(=O)(O)O` [Risedronate, 1-hydroxy-2-(3-pyridinyl)-ethylidene-1,1-bisphosphonic acid]: the Esophageal irritation potential result was “high”. The Histo-pathology entry (Group 7 (n = 8): 0.20 mg/mL, 50 mL in simulated gastric juice, 1X daily for 5 days, sacrifice immediately after last dosing) is “deep ulceration of the epithelial surface and marked submucosal inflammation and vacuolation”.

Take `O=P(O)(O)C(Sc1ccc(Cl)cc1)P(=O)(O)O` [Tiludronate, (4-chlorophenyl)thiomethane-1,1-disphosphonic acid]: the Esophageal irritation potential entry was “high”. The “Histopathology of esophagus (photomicrographs)” value (Group 8: 4.0 mg/mL, five consecutive days, sacrifice immediately after last dose) was “slight ulceration of the epithelial surface and slight submucosal inflammation and vacuolation”.
